Measurements taken from patent US20230277533A1, “THERAPEUTIC COMBINATIONS COMPRISING UBIQUITIN-SPECIFIC-PROCESSING PROTEASE 1 (USP1) INHIBITORS AND POLY (ADP-RIBOSE) POLYMERASE (PARP) INHIBITORS” (KSQ Therapeutics, Inc., priority 2020, published 2023).
Read-outs that look alike come from different tables or passages of the source.

What was measured:
CTG-0253 ovarian PDX = experiment: CTG-0253 patient-derived ovarian xenograft model; type: in vivo; conditions: Formula I 100, 300 mg/kg; Olaparib 100 mg/kg; combination 100 + 100 mg/kg; oral qd 18 days
Protocol: Anti-tumor activity of the USP1 inhibitor, Formula I co-crystal in combination with Olaparib was evaluated in mice using three patient-derived ovarian xenograft models in nude mice. 6-8 week old female athymic nude mice from Engivo were anesthetized and a 60 mm^3 tumor fragment was placed subcutaneously via incision in the flank. When tumors reached a tumor volume ranging from approximately 100 to 180 mm^3, mice were randomized into groups of 3-4 mice and were assigned into the following groups: control (vehicle), Formula I (100 mg/kg), Formula I (300 mg/kg), Olaparib (100 mg/kg) or Formula I (100 mg/kg) and Olaparib (100 mg/kg) combination. Compound was administered via oral gavage once daily for 18 days (days 0 to 17). Body weight and tumor volume were measured twice per week. Tolerability was assessed by calculating body weight changes as percent (%) from body weight on day of treatment start (day 0). Tumor volume was calculated as mean and standard error of the mean for each treatment group. A tumor regression (REG) was defined as a tumor with a smaller volume on the last day of the study as compared to the first day of dosing, and a complete regression (CR) was defined as no palpable tumor at the end of the study.

OVK18 = experiment: Colony formation (CFU) assay; type: cell-based; conditions: OVK18, ovary
How it was run: (§1)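 Under a 14-day clonogenic protocol, media bearing USP1 inhibitor, niraparib or olaparib replaced the old at day 8. Colonies were fixed, stained with crystal violet and the dye quantified at 565 nm; values were fitted to a two-parameter Hill equation.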

KP3 = experiment: Colony formation (CFU) assay; type: cell-based
How it was run: as §1

HCC1438 = experiment: Colony formation (CFU) assay; type: cell-based; conditions: HCC1438, lung
How it was run: as §1

HCC2108 = experiment: Colony formation (CFU) assay; type: cell-based; conditions: HCC2108, lung
How it was run: as §1

ES2 = experiment: Colony formation (CFU) assay; type: cell-based; conditions: Homo sapiens, ES-2; ES2, ovary
How it was run: as §1

COV434 = experiment: Colony formation (CFU) assay; type: cell-based; conditions: COV434, ovary
How it was run: as §1

TE5 = experiment: Colony formation (CFU) assay; type: cell-based; conditions: Homo sapiens, TE-5; TE5, esophagus
How it was run: as §1

KMBC2 = experiment: Colony formation (CFU) assay; type: cell-based; conditions: KMBC2, bladder
How it was run: as §1

HCC1937 = experiment: Colony formation (CFU) assay; type: cell-based; conditions: Homo sapiens; HCC1937, breast
How it was run: as §1

PECAPJ15 = experiment: Colony formation (CFU) assay; type: cell-based; conditions: PECAPJ15, head and neck
How it was run: as §1

RT112 = experiment: Colony formation (CFU) assay; type: cell-based; conditions: Homo sapiens, RT-112; RT112, bladder
How it was run: as §1

BICR78 = experiment: Colony formation (CFU) assay; type: cell-based; conditions: BICR78, head and neck
How it was run: as §1

HOS = experiment: Colony formation (CFU) assay; type: cell-based; conditions: Homo sapiens, bone
How it was run: as §1

NOS1 = experiment: Colony formation (CFU) assay; type: cell-based; conditions: NOS1, bone
How it was run: as §1

SN12C = experiment: Colony formation (CFU) assay; type: cell-based; conditions: Homo sapiens, kidney
How it was run: as §1

SNUC5 = experiment: Colony formation (CFU) assay; type: cell-based; conditions: SNUC5, colon
How it was run: as §1

SKES1 = experiment: Colony formation (CFU) assay; type: cell-based; conditions: Homo sapiens, SK-ES1; SKES1, bone
How it was run: as §1

NCIH1915 = experiment: Colony formation (CFU) assay; type: cell-based; conditions: NCI-H1915; NCIH1915, lung
How it was run: as §1

KS1 = experiment: Colony formation (CFU) assay; type: cell-based; conditions: KS1, nervous system
How it was run: as §1

PK8 = experiment: Colony formation (CFU) assay; type: cell-based; conditions: PK8, pancreas
How it was run: as §1

KLE = experiment: Colony formation (CFU) assay; type: cell-based; conditions: Homo sapiens, uterus
How it was run: as §1

647V = experiment: Colony formation (CFU) assay; type: cell-based; conditions: Homo sapiens, bladder
How it was run: as §1

AN3CA = experiment: Colony formation (CFU) assay; type: cell-based; conditions: Homo sapiens, AN3-CA, uterus
How it was run: as §1

[1] = dog, in vivo; cited from earlier work

| SMILES | IC50 (OVK18) | IC50 (HCC1438) | IC50 (HCC2108) | IC50 (ES2) | IC50 (COV434) | IC50 (TE5) | IC50 (KMBC2) | IC50 (HCC1937) | IC50 (PECAPJ15) | IC50 (RT112) | IC50 (BICR78) | IC50 (HOS) | IC50 (NOS1) | IC50 (SN12C) | IC50 (SNUC5) | IC50 (SKES1) | IC50 (NCIH1915) | IC50 (KS1) | IC50 (PK8) | IC50 (KLE) | other results |
| --- | --- | --- | --- | --- | --- | --- | --- | --- | --- | --- | --- | --- | --- | --- | --- | --- | --- | --- | --- | --- | --- |
| COc1ncnc(C2CC2)c1-c1ncc2cnn(Cc3ccc(-c4nc(C(F)(F)F)cn4C(C)C)cc3)c2n1 [Formula I, 6-(4-cyclopropyl-6-methoxypyrimidin-5-yl)-1-(4-(1-isopropyl-4-(trifluoromethyl)-1H-imidazol-2-yl)benzyl)-1H-pyrazolo[3,4-d]pyrimidine] | – | – | – | – | – | – | – | – | – | – | – | – | – | – | – | – | – | – | – | – | anti-tumor activity (CTG-0253 ovarian PDX): none |
| COc1ncnc(C2CC2)c1-c1ncc2cnn(Cc3ccc(-c4nc(C(F)(F)F)cn4C)cc3)c2n1 [Formula II, 6-(4-cyclopropyl-6-methoxypyrimidin-5-yl)-1-(4-(1-methyl-4-(trifluoromethyl)-1H-imidazol-2-yl)benzyl)-1H-pyrazolo[3,4-d]pyrimidine] | > 300 nM | > 300 nM | > 300 nM | 27.5 nM | > 300 nM | > 300 nM | > 300 nM | > 300 nM | > 300 nM | > 300 nM | > 300 nM | > 300 nM | > 300 nM | 64.7 nM | > 300 nM | > 300 nM | 52.2 nM | > 300 nM | > 300 nM | > 300 nM | IC50 (KP3): > 300 nM; IC50 (647V): 33.9 nM; IC50 (AN3CA): > 300 nM |
| NC(=O)c1cccc2cn(-c3ccc([C@@H]4CCCNC4)cc3)nc12 [Niraparib, niraparib, reference compound] | > 300 nM | 42.5 nM | 95.5 nM | > 300 nM | 106 nM | > 300 nM | > 300 nM | 244 nM | > 300 nM | > 300 nM | > 300 nM | > 300 nM | > 300 nM | > 300 nM | 92.4 nM | 23.6 nM | 66.2 nM | > 300 nM | > 300 nM | > 300 nM | toxicity findings [1]: Significant changes were noted in hematology parameters in a 28-day; IC50 (KP3; KP3, pancreas, read-out: IC50): > 300 nM; IC50 (647V): 96.7 nM; IC50 (AN3CA): 101 nM |
